# Data published in ChEMBL document CHEMBL5385915 (J Med Chem, 2024).
# System: Mycobacterium tuberculosis variant bovis
# Test: Bactericidal activity against Mycobacterium bovis BCG assessed as inhibition of bacterial growth incubated for 7 days by resazurin dye based assay
# Format: functional
# Details: 168 h, time 7 day
row,SMILES,MBC [µM]
1,FC(F)(F)c1cc([C@H]2C[C@@H](CN3CCCC3)N2Cc2ccccc2Br)cc(C(F)(F)F)c1 (racemic),12
2,FC(F)(F)Oc1ccc([C@H]2C[C@@H](CN3CCCC3)N2Cc2ccccc2OC(F)(F)F)cc1 (racemic),12

# System: Mycobacterium tuberculosis variant bovis
# Test: Antimycobacterial activity against Mycobacterium bovis BCG assessed as reduction in microbial growth incubated for 7 days by resazurin dye based assay
# Format: functional
# Details: 168 h, time 7 day
row,SMILES,MIC99 [µM]
1,Brc1ccccc1CN1[C@H](CN2CCCC2)C[C@@H]1c1ccccc1 (racemic),65
2,Clc1cc(Cl)cc([C@H]2C[C@@H](CN3CCCC3)N2Cc2ccccc2Br)c1 (racemic),11
3,COCCNC[C@@H]1C[C@H](c2ccc(OC(F)(F)F)cc2)N1Cc1ccccc1OC(F)(F)F (racemic),30
4,C#CCNC[C@@H]1C[C@H](c2cc(Br)cc(Br)c2)N1Cc1ccccc1Br (racemic),54
5,CC(C)NC[C@@H]1C[C@H](c2ccccc2)N1Cc1ccccc1OC(F)(F)F (racemic),45
6,FC(F)(F)c1cc([C@H]2C[C@@H](CN3CCCC3)N2Cc2ccccc2Br)cc(C(F)(F)F)c1 (racemic),22
7,CN(C)C[C@@H]1C[C@H](c2cc(Br)cc(Br)c2)N1Cc1ccccc1Br (racemic),48
8,COc1ccc([C@H]2C[C@@H](CN3CCCC3)N2Cc2ccccc2Br)cc1 (racemic),42.6
9,CC(C)NC[C@@H]1C[C@H](c2ccc(OC(F)(F)F)cc2)N1Cc1ccccc1OC(F)(F)F (racemic),26
10,FC(F)(F)c1ccc(C2CCN(C[C@@H]3C[C@H](c4ccccc4)N3Cc3ccccc3Br)CC2)cc1 (racemic),60
11,CC(C)NC[C@@H]1C[C@H](c2ccc(OC(F)(F)F)cc2)N1Cc1ccccc1Br (racemic),24
12,CC(C)NC[C@@H]1C[C@H](c2ccccc2)N1Cc1ccccc1Br (racemic),51
13,FC(F)(F)Oc1ccc(C2CCN(C[C@@H]3C[C@H](c4ccccc4)N3Cc3ccccc3Br)CC2)cc1 (racemic),56
